Data taken from the NIST ThermoML archive (doi:10.1021/je200721d).
± gives the expanded uncertainty stated by the source.

Assay: xn = mol fraction of the nth substance listed
Conditions: Liquid, Vibrating tube method

CCCCCCCC [octane] + CCCCCC
Conditions	mass density [kg/m3]
312.91 K, 1000 kPa, x2 = 0.2199	680.43 ± 0.26
312.91 K, 2000 kPa, x2 = 0.2199	681.31 ± 0.27
312.91 K, 3000 kPa, x2 = 0.2199	682.24 ± 0.27
312.91 K, 4000 kPa, x2 = 0.2199	683.15 ± 0.28
312.91 K, 5000 kPa, x2 = 0.2199	684.07 ± 0.29
312.91 K, 6000 kPa, x2 = 0.2199	684.99 ± 0.3
312.91 K, 7000 kPa, x2 = 0.2199	685.92 ± 0.3
312.91 K, 8000 kPa, x2 = 0.2199	686.87 ± 0.31
312.91 K, 9000 kPa, x2 = 0.2199	687.8 ± 0.32
312.91 K, 10000 kPa, x2 = 0.2199	688.73 ± 0.33
312.91 K, 11000 kPa, x2 = 0.2199	689.64 ± 0.34
312.91 K, 12000 kPa, x2 = 0.2199	690.55 ± 0.34
312.91 K, 13000 kPa, x2 = 0.2199	691.47 ± 0.35
312.91 K, 14000 kPa, x2 = 0.2199	692.36 ± 0.36
312.91 K, 15000 kPa, x2 = 0.2199	693.23 ± 0.37
312.91 K, 16000 kPa, x2 = 0.2199	694.09 ± 0.38
312.91 K, 17000 kPa, x2 = 0.2199	694.93 ± 0.39
312.91 K, 18000 kPa, x2 = 0.2199	695.75 ± 0.4
312.91 K, 19000 kPa, x2 = 0.2199	696.54 ± 0.4
312.91 K, 20000 kPa, x2 = 0.2199	697.32 ± 0.41
312.91 K, 21000 kPa, x2 = 0.2199	698.1 ± 0.42
312.91 K, 22000 kPa, x2 = 0.2199	698.86 ± 0.43
312.91 K, 23000 kPa, x2 = 0.2199	699.56 ± 0.44
312.91 K, 24000 kPa, x2 = 0.2199	700.29 ± 0.45
312.91 K, 25000 kPa, x2 = 0.2199	700.96 ± 0.46
313.14 K, 1000 kPa, x2 = 0.1654	682.2 ± 0.26
313.14 K, 1000 kPa, x2 = 0.5749	666.9 ± 0.27
313.14 K, 1000 kPa, x2 = 0.7995	655.29 ± 0.27
313.14 K, 1000 kPa, x2 = 0.9308	647.6 ± 0.27
313.14 K, 2000 kPa, x2 = 0.1654	683.1 ± 0.27
313.14 K, 2000 kPa, x2 = 0.5749	667.85 ± 0.27
313.14 K, 2000 kPa, x2 = 0.7995	656.27 ± 0.28
313.14 K, 2000 kPa, x2 = 0.9308	648.65 ± 0.28
313.14 K, 3000 kPa, x2 = 0.1654	684.01 ± 0.27
313.14 K, 3000 kPa, x2 = 0.5749	668.75 ± 0.28
313.14 K, 3000 kPa, x2 = 0.7995	657.26 ± 0.29
313.14 K, 3000 kPa, x2 = 0.9308	649.73 ± 0.29
313.14 K, 4000 kPa, x2 = 0.1654	684.9 ± 0.28
313.14 K, 4000 kPa, x2 = 0.5749	669.74 ± 0.29
313.14 K, 4000 kPa, x2 = 0.7995	658.29 ± 0.29
313.14 K, 4000 kPa, x2 = 0.9308	650.78 ± 0.3
313.14 K, 5000 kPa, x2 = 0.1654	685.84 ± 0.29
313.14 K, 5000 kPa, x2 = 0.5749	670.74 ± 0.3
313.14 K, 5000 kPa, x2 = 0.7995	659.31 ± 0.3
313.14 K, 5000 kPa, x2 = 0.9308	651.85 ± 0.31
313.14 K, 6000 kPa, x2 = 0.1654	686.8 ± 0.3
313.14 K, 6000 kPa, x2 = 0.5749	671.71 ± 0.3
313.14 K, 6000 kPa, x2 = 0.7995	660.34 ± 0.31
313.14 K, 6000 kPa, x2 = 0.9308	652.92 ± 0.32
313.14 K, 7000 kPa, x2 = 0.1654	687.71 ± 0.3
313.14 K, 7000 kPa, x2 = 0.5749	672.72 ± 0.31
313.14 K, 7000 kPa, x2 = 0.7995	661.38 ± 0.32
313.14 K, 7000 kPa, x2 = 0.9308	654 ± 0.33
313.14 K, 8000 kPa, x2 = 0.1654	688.62 ± 0.31
313.14 K, 8000 kPa, x2 = 0.5749	673.69 ± 0.32
313.14 K, 8000 kPa, x2 = 0.7995	662.44 ± 0.33
313.14 K, 8000 kPa, x2 = 0.9308	655.08 ± 0.33
313.14 K, 9000 kPa, x2 = 0.1654	689.54 ± 0.32
313.14 K, 9000 kPa, x2 = 0.5749	674.66 ± 0.33
313.14 K, 9000 kPa, x2 = 0.7995	663.49 ± 0.34
313.14 K, 9000 kPa, x2 = 0.9308	656.16 ± 0.34
313.14 K, 10000 kPa, x2 = 0.1654	690.46 ± 0.33
313.14 K, 10000 kPa, x2 = 0.5749	675.65 ± 0.34
313.14 K, 10000 kPa, x2 = 0.7995	664.53 ± 0.35
313.14 K, 10000 kPa, x2 = 0.9308	657.23 ± 0.35
313.14 K, 11000 kPa, x2 = 0.1654	691.38 ± 0.33
313.14 K, 11000 kPa, x2 = 0.5749	676.63 ± 0.35
313.14 K, 11000 kPa, x2 = 0.7995	665.56 ± 0.36
313.14 K, 11000 kPa, x2 = 0.9308	658.29 ± 0.36
313.14 K, 12000 kPa, x2 = 0.1654	692.28 ± 0.34
313.14 K, 12000 kPa, x2 = 0.5749	677.6 ± 0.36
313.14 K, 12000 kPa, x2 = 0.7995	666.56 ± 0.37
313.14 K, 12000 kPa, x2 = 0.9308	659.33 ± 0.37
313.14 K, 13000 kPa, x2 = 0.1654	693.17 ± 0.35
313.14 K, 13000 kPa, x2 = 0.5749	678.56 ± 0.36
313.14 K, 13000 kPa, x2 = 0.7995	667.56 ± 0.37
313.14 K, 13000 kPa, x2 = 0.9308	660.36 ± 0.38
313.14 K, 14000 kPa, x2 = 0.1654	694.06 ± 0.36
313.14 K, 14000 kPa, x2 = 0.5749	679.5 ± 0.37
313.14 K, 14000 kPa, x2 = 0.7995	668.54 ± 0.38
313.14 K, 14000 kPa, x2 = 0.9308	661.38 ± 0.39
313.14 K, 15000 kPa, x2 = 0.1654	694.94 ± 0.37
313.14 K, 15000 kPa, x2 = 0.5749	680.41 ± 0.38
313.14 K, 15000 kPa, x2 = 0.7995	669.51 ± 0.39
313.14 K, 15000 kPa, x2 = 0.9308	662.38 ± 0.4
313.14 K, 16000 kPa, x2 = 0.1654	695.81 ± 0.38
313.14 K, 16000 kPa, x2 = 0.5749	681.32 ± 0.39
313.14 K, 16000 kPa, x2 = 0.7995	670.45 ± 0.4
313.14 K, 16000 kPa, x2 = 0.9308	663.36 ± 0.41
313.14 K, 17000 kPa, x2 = 0.1654	696.65 ± 0.38
313.14 K, 17000 kPa, x2 = 0.5749	682.2 ± 0.4
313.14 K, 17000 kPa, x2 = 0.7995	671.4 ± 0.41
313.14 K, 17000 kPa, x2 = 0.9308	664.33 ± 0.42
